# Measured values from US12661353B2, “SPT5 inhibitors and uses thereof” (Yeda Research and Development Co. Ltd., priority 2020, dated 2026).
# How the values were obtained:
# [1] = test system: pro-inflammatory genes A20, CCL20, IL6, IL8, CXCL2, JUNB and IEX1; experiment: mRNA levels of pro-inflammatory genes under basal conditions, HeLa, RT-qPCR; type: cell-based, human; conditions: HeLa cells, 2 hours, 50 μM SPI
# Protocol: (§1) Cell culture—HEK293T, HeLa, MCF7, Jurkat and mouse embryonic fibroblasts (MEFs) cells were grown and maintained in Dulbecco's modified Eagle's medium supplemented with 10% fetal calf serum (Gibco) and 1% penicillin-streptomycin. To avoid NF-κB activity, HeLa cells were kept from reaching confluence and re-plated no more than 10 times following initial thawing. To induce NF-κB activity, cells were treated with […] recombinant human TNF-α (Peprotech) for the indicated times. STHdh Q111 and STHdh Q7 striatal cell lines (Coriell Institute for Medical Research) were grown in Dulbecco's modified Eagle's medium supplemented with 10% fetal calf serum (Gibco), 1% penicillin-streptomycin and 0.4 mg/ml G418 at 33° C. The cells were re-plated no more than 5-6 times, as recommended.
# (§2) RNA analysis—Total RNA was extracted using Tri-reagent (Bio-Lab Chemicals) and Direct-Zol™ RNA MiniPrep kit (Zymo Research). Following, cDNA was synthesized from […] of total RNA using a High-Capacity cDNA Reverse Transcription Kit (ABI, Thermo Fisher Scientific). cDNA samples were analyzed by quantitative PCR (qPCR) in a ViiA 7 Real-Time PCR System using Fast qPCRBIO SYBR Green Mix (PCR Biosystems).
# Thus, a subset of Spt5-responsive pro-inflammatory genes from the aforementioned studies and from others (Aida et al., 2006; Fujita et al., 2009), namely A20, CCL20, IL6, IL8, CXCL2, JUNB and IEX1, were selected and the effect of the identified SPIs on their expression under basal conditions and in response to NF-κB activation was tested (FIGS. 2A-C and 3A-C). Specifically, for analyzing expression under basal conditions, Hela cells were treated with vehicle (DMSO) or SPI for 2 hours and following RNA was extracted and analyzed by RT-qPCR.
# [2] = test system: pro-inflammatory genes A20, CCL20, IL6, IL8, CXCL2, JUNB and IEX1; experiment: mRNA levels of pro-inflammatory genes under TNFα-induced conditions, HeLa, RT-qPCR; type: cell-based, human; conditions: HeLa cells, SPI 1 hour then TNFα 1 hour
# Protocol: as §1, §2
# In the next step, the effect of the identified SPIs on expression of the selected genes following NF-κB activation was analyzed. Specifically, Hela cells were pre-incubated with DMSO or SPI (50 μM or less) for 1 hour followed by treatment with TNFα for an additional 1 hour.
# mutant (Q111) Htt = experiment: Htt mRNA levels in Q111 striatal cells, qPCR; type: cell-based, mouse; conditions: Q111 striatal cells, 48 hours; further: key: + represent a statistically significant effect
# Protocol: as §1
# Huntington's disease (HD) is an inherited genetic disorder caused by expansion trinucleotide CAG repeats (36 and higher) encoding glutamine (Q) in the huntingtin (Htt) gene. Expression of the mutant gene in neurons of the striatum and the frontal cortex leads to degeneration of neuronal cells that control body movements, emotions and intellect. […] To examine the potential effect of SPIs in this context, striatal cell lines established from wild type (Q7) or from mutant (Q111) Htt knock-in mice were used. In these cell lines the coding region of the first exon of the mouse Htt gene was replaced with the same region of human wild type (Q7) or mutant (Q111) Htt, as schematically shown in FIG. 6A. The two cell lines were treated for 48 hours with the identified SPIs and following the levels of Htt mRNA were determined.
# The compounds were tested as described in Example 4 hereinabove. In brief, Q111 (or Q7, where indicated) expressing Striatal cells were treated with the tested compound at the indicated concentrations for 48 hours. Then, RNA was extracted and levels of Htt mRNA were determined by qRT-PCR and normalized to β-actin. The data was analysed using GraphPad Prism software.
# HeLa cells = experiment: Cells viability assay (CellTiter-Glo), HeLa; type: cell-based, human; conditions: increasing concentrations, 48 h
# Protocol: Cells viability assay—_HeLa cells were plated in an opaque-walled 96 well plate (50,000 cells per well) and treated with increasing concentrations of the tested SPI compounds (e.g., SPI-21 or SPI-18) for 48 hours. After equilibrating the plate and its contents at room temperature for 30 minutes, […] (1:1) of CellTiter-Glo® Reagent (G7571, Promega) was added to each well and shook for 2 minutes to induce cell lysis. Following 10 minutes incubation at room temperature, the luminescent signal was detected using the Cytation 5 instrument.
# Spt5 was reported to be essential for cell growth and survival in mammalian cells (Komori et al., 2009).
# Spt5 activities = experiment: Combined effects on the various Spt5 activities (summary of Examples 1-4); type: cell-based
# A20 gene = experiment: ChIP of Pol II and Spt5 occupancy of the A20 gene; type: cell-based, human; conditions: for TNFα induction of Pol II and Spt5 levels at the A20 loci: TNFα+ 30 minutes; for Spt5 and Pol II occupancy at 3 loci of the A20 gene: basal conditions (TNFα-)
# Protocol: Chromatin immunoprecipitation (ChIP)—HeLa cells were treated with DMSO (vehicle control) or the indicated compound (50 μM; 60 minutes), followed by TNF-α induction (30 minutes) in 100-mm plates. Following, the cells were cross-linked with 1% formaldehyde for 10 minutes at room temperature, and fixation was terminated by adding 1/20 volume of 2.5 M glycine.
# Chromatin extraction and immunoprecipitation were carried out as previously described in Diamant et al., 2012. For immunoprecipitation (IP), 3 μg of anti-RNA polymerase II (ab817, Abcam) anti-Spt5 [previously described in Amir-Zilberstein et al., 2007] or control IgG (SC-2025, Santa Cruz Biotechnology) was added to 1 ml of the soluble chromatin DNA. IP and input samples were analyzed by qPCR as described above.
# To further examine the impact of the identified SPIs on chromatin occupancy of Spt5 and Pol II, chromatin immunoprecipitation (ChIP) in the presence of DMSO, SPI-21 or SP-18 followed by 30 minutes TNFα treatment was performed. […] This finding is consistent with the increase in transcription under basal conditions exerted by SPI-21 but not by SPI-18 (FIG. 2A). Upon TNFα induction the levels of Pol II and Spt5 were dramatically elevated and this induction was diminished by both SPI-21 and SPI-18 at all the analyzed loci (FIG. 3G, TNFα+). This finding is consistent with the decrease in transcription under TNFα-induced conditions of both SPI-21 and SIP-18 (FIG. 3A).
Compound,Up-regulation of pro-inflammatory genes under basal conditions (i.e. inhibiting proximal promoter pausing of pro-inflammatory genes induced by Spt5) [1],Down-regulating transcription of pro-inflammatory genes under TNFα induced conditions (i.e. inhibiting transcription elongation of pro-inflammatory genes induced by Spt5) [2],Down-regulating transcription of Mutant Htt (i.e. inhibiting transcription elongation of mutant Htt gene induced by Spt5) (mutant (Q111) Htt),cellular viability (HeLa cells),"classification by effect on the various Spt5 activities, in words (Spt5 activities)",TNFα induction of Pol II and Spt5 levels at the A20 loci (A20 gene),Spt5 and Pol II occupancy at 3 loci of the A20 gene (A20 gene)
COc1ccc(C=CC(=O)c2cc(O)ccc2O)cc1 [SPI-21],++ (++ >3),+++ (+++ represent >80% inhibition),+,dramatically diminish cellular viability in a dose-dependent manner,affect all the tested Spt5 activities,diminished,moderate but significant enhancement
Nc1ccccc1SC(CC(=O)c1cccs1)c1cccs1 (stereo not shown) [SPI-18],–,+ (+ >50%),+,dramatically diminish cellular viability in a dose-dependent manner,inhibited mainly the positive activity of Spt5 with little or no effect on proximal promoter pausing,diminished,unchanged
